From paper PMC3731988 (Molecular microbiology, 2013) come the findings set out here.

In the test the target is T1, threonine dehydrogenase (Tdh) (Escherichia coli, UniProt P07913).
T1 sequence (P07913 1-341): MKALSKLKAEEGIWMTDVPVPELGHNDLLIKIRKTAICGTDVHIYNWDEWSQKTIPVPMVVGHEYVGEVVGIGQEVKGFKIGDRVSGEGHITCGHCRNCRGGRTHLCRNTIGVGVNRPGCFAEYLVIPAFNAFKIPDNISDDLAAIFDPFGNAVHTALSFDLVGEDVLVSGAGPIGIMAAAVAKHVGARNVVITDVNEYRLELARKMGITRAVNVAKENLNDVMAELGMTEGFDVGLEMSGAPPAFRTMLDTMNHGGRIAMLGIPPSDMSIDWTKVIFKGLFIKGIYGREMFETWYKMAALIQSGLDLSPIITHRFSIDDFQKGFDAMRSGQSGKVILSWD
The test is described as follows: NADH formation at […] nm. The following applies: Fe(II)-loaded enzyme; 30 mM threonine, 1 mM NAD+, 50 mM Tris-HCl pH 8.4, 25 °C, anaerobic. The class given is biochemical.

As to `C[C@@H](O)[C@H](N)C(=O)O` [threonine], the “NADH formation at 340 nm” value was “Tdh oxidizes threonine, with the production of NADH that can be monitored”.
